Source: patent US20240374524A1, “INCREASING PERMEATION FOR PRE-GASTRIC ABSORPTION OF ACTIVE PHARMACEUTICAL INGREDIENTS” (Catalent U.K. Swindon Zydis Limited, priority 2023, published 2024)
In brackets after ≈: the same amount, converted by molar mass. Entries after “also recorded” stand apart in the source; their conditions may differ. Like-named read-outs stand apart in the source and are kept apart here. One block for each compound: values may come before it.

What was measured:
[1] = Measured pH of API/permeation agent mixtures and of dispersed ODTs; type: physicochemical
TR146 buccal cell line [2] = settings: human, 1.74 mg/ml, pH 7
[3] = Theoretical percent ionized and un-ionized API at sample pH (Henderson-Hasselbach equation); type: physicochemical; settings: for Calculated % ionized / Calculated % unionized: Piroxicam at sample pH
TR146 buccal cell line [4] = test: Permeability of Famotidine/permeation agent binary mixes, TR146 cells on Transwell inserts
[5] = cited from earlier work; for HLB value: hydrophilic-lipophilic balance of surfactant
TR146 buccal cell line [6] = test: Pre-formulation permeability of Piroxicam & permeation agent binary mixtures, TR146 cells on Transwell inserts; settings: for % Cumulative Permeability (n = 3) 1 min / % Cumulative Permeability (n = 3) 2 min / % Cumulative Permeability (n = 3) 5 min / % Cumulative Permeability (n = 3) 15 min / % Cumulative Permeability (n = 3) 20 min / % Cumulative Permeability (n = 3) 30 min: Piroxicam 0.35 mg in donor
TR146 buccal cell line [7] = test: Permeability of Atenolol/permeation agent binary mixes (Table 11), TR146 cells on Transwell inserts; settings: surfactants 1:1 molar ratio, PF127 and bile salt 2×CMC, citric acid 0.37-1 mg/ml
TR146 buccal cell line [8] = test: Pre-formulation permeability of Carvedilol/permeation agent binary mixes, TR146 cells on Transwell inserts
TR146 buccal cell line [9] = test: Permeability of reconstituted Piroxicam freeze-dried ODT, TR146 cells on Transwell inserts; type: in vitro ADME
[10] = Physicochemical properties of model APIs and permeation agents (solubility, log P, pKa, HLB)
[11] = Piroxicam 0.7 mg/ml binary mixtures in distilled water, ^a after adjustment with 0.1M HCl
[12] = agent at 1:1 molar ratio to Piroxicam, CA after 20 and 30 minutes
[13] = agent at 1:1 molar ratio to Piroxicam, at 30 minutes

pH ([1]; Carvedilol 1.74 mg/ml binary mixes in water, ^a after 0.1M NaOH, ^b after 0.1M HCL): 7
% Cumulative Permeability (n = 3) 1 min (TR146 buccal cell line [2]; 1 min): 0.02%
% Cumulative Permeability (n = 3) 2 min (TR146 buccal cell line [2]; 2 min): 0.03%
% Cumulative Permeability (n = 3) 5 min (TR146 buccal cell line [2]; 5 min): 0.03%
% Cumulative Permeability (n = 3) 15 min (TR146 buccal cell line [2]; 15 min): 0.10%
% Cumulative Permeability (n = 3) 20 min (TR146 buccal cell line [2]; 20 min): 0.13%
% Cumulative Permeability (n = 3) 30 min (TR146 buccal cell line [2]; 30 min): 0.18%
Calculated % ionised ([3]; Carvedilol at sample pH): 86.32%
Calculated % unionised ([3]; Carvedilol at sample pH): 13.68%
Compound: COc1ccccc1OCCNCC(O)COc1cccc2[nH]c3ccccc3c12 (stereo not shown) [Sample 1CAV, Carvedilol]

% Cumulative Permeability (n = 3) 1 min (TR146 buccal cell line [4]; Famotidine […], 0.5 ml in donor, 1 min): 0.32%
% Cumulative Permeability (n = 3) 2 min (TR146 buccal cell line [4]; Famotidine […], 0.5 ml in donor, 2 min): 0.84%
% Cumulative Permeability (n = 3) 5 min (TR146 buccal cell line [4]; Famotidine […], 0.5 ml in donor, 5 min): 2.09%
% Cumulative Permeability (n = 3) 15 min (TR146 buccal cell line [4]; Famotidine […], 0.5 ml in donor, 15 min): 7.81%
% Cumulative Permeability (n = 3) 20 min (TR146 buccal cell line [4]; Famotidine […], 0.5 ml in donor, 20 min): 11.76%
% Cumulative Permeability (n = 3) 30 min (TR146 buccal cell line [4]; Famotidine […], 0.5 ml in donor, 30 min): 19.98%
Calculated % ionised ([3]; Famotidine at sample pH): 1.53%
Calculated % unionised ([3]; Famotidine at sample pH): 98.47%
Compound: NC(N)=Nc1nc(CSCCC(N)=NS(N)(=O)=O)cs1 [Sample 1FAM, Famotidine]

pH [1, 11]: 6.64
Calculated % ionized [3]: 97.20%
Calculated % unionized [3]: 2.80%
% Cumulative Permeability (n = 3) 1 min (TR146 buccal cell line [6]): 0.13%
% Cumulative Permeability (n = 3) 2 min (TR146 buccal cell line [6]): 0.41%
% Cumulative Permeability (n = 3) 5 min (TR146 buccal cell line [6]): 1.60%
% Cumulative Permeability (n = 3) 15 min (TR146 buccal cell line [6]): 5.88%
% Cumulative Permeability (n = 3) 20 min (TR146 buccal cell line [6]): 7.91%
% Cumulative Permeability (n = 3) 30 min (TR146 buccal cell line [6]): 11.24%
Compound: CN1C(C(=O)Nc2ccccn2)=C(O)c2ccccc2S1(=O)=O [Sample 3PXM, Piroxicam]

effect on Piroxicam permeability vs control (TR146 buccal cell line [6]; [12]): significantly reduced
Compound: CCCCCCCCCC(=O)O [capric acid, Capric acid]

pH [1, 11]: 5.30
Calculated % ionized [3]: 61.31%
Calculated % unionized [3]: 38.69%
% Cumulative Permeability (n = 3) 1 min (TR146 buccal cell line [6]): 0.08%
% Cumulative Permeability (n = 3) 2 min (TR146 buccal cell line [6]): 0.24%
% Cumulative Permeability (n = 3) 5 min (TR146 buccal cell line [6]): 0.96%
% Cumulative Permeability (n = 3) 15 min (TR146 buccal cell line [6]): 3.82%
% Cumulative Permeability (n = 3) 20 min (TR146 buccal cell line [6]): 5.89%
% Cumulative Permeability (n = 3) 30 min (TR146 buccal cell line [6]): 9.96%
Compound: CN1C(C(=O)Nc2ccccn2)=C(O)c2ccccc2S1(=O)=O [Sample 1PXM, Piroxicam]

effect on Piroxicam permeability vs control (TR146 buccal cell line [6]; [12]): increased
fold increase in Piroxicam percentage cumulative permeability vs control (TR146 buccal cell line [6]; [13]): 2.1 fold
percentage cumulative permeability of Piroxicam (TR146 buccal cell line [6]; [13]): 20.82%
Compound: POE-(4)-sorbitan monolaurate [Tween 21]
effect on Famotidine permeability vs control (TR146 buccal cell line [4]): Neither PF127 nor Tween 21 showed an enhancement; also recorded: no increase in Famotidine permeability was observed

pKa [10]: ≥ 5
effect on Piroxicam permeability (TR146 buccal cell line [6]; 1:3 and 1:6 molar ratios Piroxicam to counterion): no significant enhancement
Compound: NCCCC[C@H](N)C(=O)O [lysine, Lysine]

pH ([1]; Atenolol 1.74 mg/ml binary mixes in distilled water, ^a after 0.1M NaOH): 10.58
pH ([1]; measured pH of Atenolol (1.74 mg/ml)/permeation agent mixture in distilled water): 10.58
% ionised ([3]; Atenolol at sample pH): 9.48%
% unionised ([3]; Atenolol at sample pH): 90.52%
Compound: CC(C)NCC(O)COc1ccc(CC(N)=O)cc1 (stereo not shown) [Sample 1ATL, Atenolol]

The remaining lines, values behind:

Compound: COc1ccccc1OCCNCC(O)COc1cccc2[nH]c3ccccc3c12 (stereo not shown) [Carvedilol]
water solubility [5]: 4.44 µg/mL (≈ 10.9 µM)

Compound: Sorbitan monooleate [Span 80]
fold increase in Famotidine permeability vs control (TR146 buccal cell line [4]; 1:1 molar ratio, time not stated): 2 fold
effect on Piroxicam permeability vs control (TR146 buccal cell line [6]; [12]): reduce the Piroxicam permeability significantly

Compound: CCCCCCCCCCCCO[C@@H]1O[C@H](CO)[C@@H](O[C@H]2O[C@H](CO)[C@@H](O)[C@H](O)[C@H]2O)[C@H](O)[C@H]1O [DDM, Dodecyl-B-D-Maltoside]
difference in Famotidine permeability vs control (TR146 buccal cell line [4]; 1:1 molar ratio, at the 20 and 30 minute marks): no significant difference
fold increase in Famotidine permeability vs control (TR146 buccal cell line [4]; 1:1 molar ratio, first 5 through 15 minutes): 3 fold
effect on Atenolol permeability vs control (TR146 buccal cell line [7]): no statistically significant difference
HLB value [5]: 13.5
effect on Carvedilol permeability vs control (TR146 buccal cell line [8]; PF127 at 2×CMC, other surfactants at 1:1 molar ratio): No significant effect
effect on Piroxicam permeability vs control (TR146 buccal cell line [6]; [12]): increased
fold increase in Piroxicam percentage cumulative permeability vs control (TR146 buccal cell line [6]; [13]): 2.6 fold
percentage cumulative permeability of Piroxicam (TR146 buccal cell line [6]; [13]): 25.60%

Compound: C[C@H](CCC(=O)[O-])[C@H]1CC[C@H]2[C@@H]3[C@H](O)C[C@@H]4C[C@H](O)CC[C@]4(C)[C@H]3C[C@H](O)[C@]12C.O.[Na+] [sodium cholate hydrate, Sodium Cholate hydrate]
effect on permeability of Piroxicam in ODT (TR146 buccal cell line [9]; […] w/w, 0.5×CMC in aqueous dispersion): only slightly increased
effect on Atenolol permeability vs control (TR146 buccal cell line [7]): no statistical difference
fold increase in Carvedilol percentage cumulative permeability vs control (TR146 buccal cell line [8]; at/after 30 minutes): ~2 fold
percentage cumulative permeability of Piroxicam (TR146 buccal cell line [6]; agent at 1×CMC, at 30 minutes): 39.52%
percentage cumulative permeability of Piroxicam (TR146 buccal cell line [6]; agent at 2×CMC, at 30 minutes): 14.44%
effect on Piroxicam permeability vs control (TR146 buccal cell line [6]; bile salt at 0.5 CMC): slight, statistically non-significant increase
fold increase in Piroxicam permeability vs control (TR146 buccal cell line [6]; bile salt at 1 CMC, at 30 minutes): 4 fold
effect on Piroxicam permeability vs control (TR146 buccal cell line [6]; bile salt at 2 CMC, pH-adjusted using citric acid): slight and statistically non-significant
fold increase in Piroxicam percentage cumulative permeability (TR146 buccal cell line [6]; bile salt at 2 CMC, at the first minute): 1.5 fold

Compound: CCCCCCCCCCCCOS(=O)(=O)[O-].[Na+] [SLS, Sodium Lauryl Sulfate]
effect on permeability of Piroxicam ODT vs control (TR146 buccal cell line [9]; 0.69% w/w and 3.49% w/w (PXM:SLS 5:1 and 1:1)): increased
permeability of 3.49% w/w sample compared to 0.69% w/w sample (TR146 buccal cell line [9]; Piroxicam ODT): marginally higher but statistically significant increase
effect on Atenolol permeability vs control (TR146 buccal cell line [7]): non-statistically significant increase
HLB value [5]: 40
effect on Piroxicam permeability vs control (TR146 buccal cell line [6]; [12]): increased

Compound: CN1C(C(=O)Nc2ccccn2)=C(O)c2ccccc2S1(=O)=O [Piroxicam]
pKa [5]: 5.1
water solubility [5]: 143 µg/mL (≈ 432 µM)
